Results taken from patent US20260364214A1, “MULTIVALENT FIBROBLAST ACTIVATION PROTEIN LIGANDS FOR TARGETED DELIVERY APPLICATIONS” (Philochem AG, priority 2022, published 2026).

Tested on: SK-RC-52.hFAP tumors
Assay: Quantitative biodistribution in SK-RC-52.hFAP tumor bearing mice
Type: in vivo, mouse (female athymic Balb/c AnNRj-Foxn1)
Conditions: i.v. 250 nmol/kg, 50 MBq/kg
Protocol: SK-RC-52.hFAP were grown to 80% confluence in RPMI-1640 with 10% fetal bovine serum (FBS) and 1% antibiotic-antimycotic and detached with Trypsin-EDTA (ethylenediaminetetraacetic acid) 0.05%. Tumor cells were resuspended in Hanks' Balanced Salt Solution medium. Aliquots of 5 million cells (100 μL of suspension) were injected subcutaneously in the right flank of female athymic Balb/c AnNRj-Foxn1 mice (6 to 8 wk of age).
Radiolabeling of ESV6-DOTAGA, Bi-ESV6-DOTAGA, Tri-ESV6-DOTAGA, Tetra-ESV6-DOTAGA, Hexa-ESV6-DOTAGA, Octa-ESV6-DOTAGA and FAP-2286 with lutetium-177 (a therapeutic radionuclide) was performed with different specific activities for three different studies (biodistribution, therapy and dose optimization).
Prior to the biodistribution study, precursors (100 nmol) were dissolved in 100 μL of milliQ water and diluted with 200 μL of sodium acetate (1 M in water, pH=4.5). 20 MBq of ^177Lu solution were added and the mixture was heated at 90 °C for 10 minutes, followed by dilution with […] of PBS to achieve final volume of 2 mL (20 doses of 100 μL each).
ESV6-DOTAGA, Bi-ESV6-DOTAGA, Tri-ESV6-DOTAGA, Tetra-ESV6-DOTAGA, Hexa-ESV6-DOTAGA, Octa-ESV6-DOTAGA and FAP-2286 were radiolabeled with ^177Lu as described above. Tumors were allowed to grow to an average volume of 300 mm^3. Mice were randomized and injected intravenously with radiolabeled preparations of ^177Lu-ESV6, ^177Lu-Bi-ESV6, ^177Lu-Tri-ESV6, Tetra-ESV6-DOTAGA, Hexa-ESV6-DOTAGA, Octa-ESV6-DOTAGA or ^177Lu-FAP-2286 (250 nmol/kg; 50 MBq/kg). Mice were euthanized at different time-points after the intravenous injection by CO2 asphyxiation. Tumors, organs, and blood were collected, weighted, and radioactivity was measured with a Packard Cobra Gamma Counter. Values are expressed as percent ID/g±SD [FIG. 4]. The % ID/g in the tumors was corrected considering the SK-RC-52.hFAP tumor growth rate.
Quantitative in vivo biodistribution of ^177Lu-ESV6-DOTAGA, ^177Lu-Bi-ESV6-DOTAGA, ^177Lu-Tri-ESV6-DOTAGA, ^177Lu-FAP-2286, Tetra-ESV6-DOTAGA, Hexa-ESV6-DOTAGA and Octa-ESV6-DOTAGA at different time points after intravenous administration (250 nmol/kg, 50 MBq/kg) in mice bearing SK-RC-52.hFAP tumors, are shown in Tables 1 to 4 and 10 to 12. Data are reported as % ID/g±standard deviation.
Tumor-to-organ ratios of ^177Lu-ESV6-DOTAGA, ^177Lu-Bi-ESV6-DOTAGA, ^177Lu-Tri-ESV6-DOTAGA, ^177Lu-FAP-2286, Tetra-ESV6-DOTAGA, Hexa-ESV6-DOTAGA and Octa-ESV6-DOTAGA, at different time points after intravenous administration (250 nmol/kg, 50 MBq/kg) in mice bearing SK-RC-52.hFAP tumors, are shown in Tables 5 to 8 and 13 to 15. Avg.=average; Std.d=standard deviation.

N#C[C@@H]1CC(F)(F)CN1C(=O)CNC(=O)c1ccnc2c(NC(=O)CCC(=O)NCCNC(=O)CCOCC(COCCC(=O)NCCNC(=O)CCC(=O)Nc3cccc4c(C(=O)NCC(=O)N5CC(F)(F)C[C@H]5C#N)ccnc34)(COCCC(=O)NCCNC(=O)CCC(=O)Nc3cccc4c(C(=O)NCC(=O)N5CC(F)(F)C[C@H]5C#N)ccnc34)NC(=O)CCC(C(=O)O)N3CCN(CC(=O)O)CCN(CC(=O)O)CCN(CC(=O)O)CC3)cccc12 (stereo partly drawn) [Tri-ESV6-DOTAGA, 2,2′,2″-(10-(19-carboxy-1-((4-((2-((S)-2-cyano-4,4-difluoropyrrolidin-1-yl)-2-oxoethyl)carbamoyl)quinolin-8-yl)amino)-14,14-bis((3-((2-(4-((4-((2-((S)-2-cyano-4,4-difluoropyrrolidin-1-yl)-2-oxoethyl)carbamoyl)quinolin-8-yl)amino)-4-oxobutanamido)ethyl)amino)-3-oxopropoxy)methyl)-1,4,9,16-tetraoxo-12-oxa-5,8,15-triazanonadecan-19-yl)-1,4,7,10-tetraazacyclododecane-1,4,7-triyl)triacetic acid]
tumor uptake / biodistribution profile, in words: remarkably high tumor uptake even after 48, 72 and 96 hours post injection
